# Source: article PMC9001717, “Tyrosine 121 moves revealing a ligandable pocket that couples catalysis to ATP-binding in serine racemase” (Communications Biology, 2022)
# Read-outs that look alike come from different tables or passages of the source.
# Key:
# human SR (hSR) [1] = target: T1, human SR (hSR) (Homo sapiens, UniProt Q9GZT4, C2D/C6D); test: Thermal denaturation assay; format: binding
# T1 construct: (His)6 (C); made in house; host or cells: E. coli (BL21-CodonPlus (DE3)-RIL for the mutants; the wild type is only 'as described[33]')
# T1 sequence (Q9GZT4 1-340 C2D/C6D): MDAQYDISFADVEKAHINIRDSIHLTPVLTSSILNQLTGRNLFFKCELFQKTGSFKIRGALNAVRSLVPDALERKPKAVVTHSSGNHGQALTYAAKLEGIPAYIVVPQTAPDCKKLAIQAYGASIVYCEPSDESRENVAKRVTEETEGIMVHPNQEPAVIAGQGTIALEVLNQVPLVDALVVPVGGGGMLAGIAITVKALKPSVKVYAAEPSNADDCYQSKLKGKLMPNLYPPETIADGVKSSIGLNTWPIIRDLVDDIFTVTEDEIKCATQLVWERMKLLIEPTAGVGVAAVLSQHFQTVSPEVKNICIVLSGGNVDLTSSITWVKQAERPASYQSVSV
# Experimental: The melting temperature (Tm) of SR was determined in the presence and absence of malonate (disodium salt) and 1 mM ATP (disodium salt, Fisher) in a buffer containing 100 mM CHES pH 8.5, 1 mM MgCl2, and 10 µM PLP. The reaction mixture was prepared in 96-well plates containing final concentrations of 2 µM SR, 5X SYPRO Orange dye (from 5000X concentrate, ThermoFisher), and a 6-point 1:3 dilution series of malonate (0–1 mM). Each condition was assessed with and without 1 mM ATP in the buffer. Thermal denaturation analysis was performed in triplicate by transferring 10 µL reaction mixture to 384-well plates for use in a BioRad CFX384 Touch Real-Time PCR Detection System. Programme: 10 min hold at 25 °C, plate read, increase by increments of 0.5 °C up to 95 °C; each step accompanied by a 15 s hold and plate read. Data were analysed using GraphPad Prism.
# hSR = system: hSR; parameters: method as in PMID 25331425; settings: cited from earlier work
# Yeast SR = system: Yeast SR; parameters: method as in ref 4 (a number printed in a supplementary file, which may have a reference list of its own: not looked up in the article's list); settings: ref 4; cited from earlier work
# human SR = system: human SR; parameters: method as in ref 57,58 (a number printed in a supplementary file, which may have a reference list of its own: not looked up in the article's list); settings: upon addition of ATP; cited from earlier work
# [2] = target: T2, human serine racemase (hSR) WT (Homo sapiens, UniProt Q9GZT4, C2D/C6D); test: L- to D-Ser racemisation coupled luminescence assay, wild-type hSR; format: biochemical; settings: malonate used as control compound
# T2 construct: (His)6 (C); made in house; host or cells: E. coli (BL21-CodonPlus (DE3)-RIL for the mutants; the wild type is only 'as described[33]')
# T2 sequence (Q9GZT4 1-340 C2D/C6D): T1 sequence (Q9GZT4 1-340 C2D/C6D)
# Experimental: The ability of compounds to inhibit the L to D-Ser racemisation activity of hSR was measured in a coupled assay. In the assay, hSR converts L-Ser to D-Ser. The D-Ser is then converted into pyruvate, ammonia and hydrogen peroxide using D-amino acid oxidase. Next, the hydrogen peroxide reacts with luminol in the presence of horseradish peroxidase, producing luminescent by-product. In the assay malonate was used as a control compound and gave 100% inhibition – results for XChem compounds are shown in Supplementary Table 4 and in supplementary Fig. 12. The activity of the wild-type and the three Y121 mutants, Y121F, Y121A and Y121G was measured at six ATP concentrations (1 mM, 0.5 mM, 0.25 mM, 0.125 mM, 0.062 mM and 0.031 mM) as shown in supplementary Fig. 11.
# The inhibition of hSR activity was measured using a luminescence assay in a 384 well plate (flat bottom white, Corning). Initially, each well contained 100 mM Tris pH 8.5, 0.05% Pluronic f-127 (VWR), 1 mM MgCl2, 1 mM ATP (disodium salt, Fisher), 10 µM PLP, 0.3 nM hSR, 2 mM L-serine and compound at 16.67 mM to 0.0077 mM (see supplementary Fig. 12) and had 16.7% DMSO concentration. The plate was incubated at RT with shaking for 30 min. After this, the reaction was stopped using a detection mix. The final well concentration was 100 mM Tris pH 8.5, 0.05% Pluronic f-127 (VWR), 1 mM EDTA (Fisher), 0.25 U/mL horseradish peroxidase, 0.5 U/mL D-amino acid oxidase and 25 µM Luminol (Insight Biotechnology) and 8.4% DMSO. The plate was left to incubate covered and shaking for 10 min. The plate was then read using a PHERAstar (BMG) plate reader. For the ATP dependant activity data, the method was kept the same, except for varying the concentration of ATP.
# The relative light units read (x) on the PHERAstar were converted into percentage inhibition (PI) using the equation: PI=100x[1−(x−Min)/(Max−Min)] where min is negative control (100% inhibition) and max is the positive control (no inhibition). The IC50s were calculated with GraphPad (Prism 8.3.1, Graphpad Software, San Diego CA).
# human SR (hSR) [3] = target: T1, human SR (hSR); parameters: method as in PMID 18812225; settings: read-out: inhibition constant (Ki); cited from earlier work
# mouse SR = system: mouse SR; parameters: method as in PMID 28533113; settings: cited from earlier work
# SR [4] = settings: cited from earlier work
# SR [5] = system: SR; parameters: method as in supplementary refs 2, 11-32; settings: literature summary; ref supplementary refs 2, 11-32; cited from earlier work
# [6] = 1 mM of the additive alone, reference Tm 47.3 °C
inhibition by control compound [2] [%],ΔTm (human SR (hSR) [1]; 1 mM ATP and 1 mM malonate together),malonate concentration required for the cooperative stabilising effect of ATP and malonate (human SR (hSR) [1]; with 1 mM ATP) [mM],Compound,ΔTm (human SR (hSR) [1]; [6]),increase of hSR affinity for malonate (hSR; effect of ATP on malonate binding to the catalytic site),increase of both reactions (racemisation and elimination) (Yeast SR),increase of D-serine elimination (human SR) [fold],increase of L-serine elimination (human SR) [fold],increase of L-serine racemisation (human SR) [fold],Ki (human SR (hSR) [3]) [µM],IC50 (mouse SR) [µM],IC50 (SR [4]; ref 48) [µM],IC50 (SR [4]; ref 49) [µM],Ki (SR [4]; review of SR inhibitors) [µM],increase of the affinity of hSR for ATP (hSR; allosteric effect of malonate on the ATP site) [fold],Inhibition mode (SR [5])
,,,"Nc1ncnc2c1ncn2[C@@H]1O[C@H](COP(=O)(O)OP(=O)(O)OP(=O)(O)O)[C@@H](O)[C@H]1O [ATP, Adenosine triphosphate]",−1.3 °C,at least 9 fold,less than 2 fold,4,31,~2,,,,,,,
100,+3.7 °C,> 0.1,O=C(O)CC(=O)O [malonate],+1.2 °C,,,,,,33,770,67,449,< 100,100,Competitive
